# Where two headings read alike, the source gives them in different places.
# Test system: HCV proteins in Rep5.1 cells (replicon cell line)
# Assay: Inhibitory activity of HCV: cell-based ELISA in replicon cell line Rep5.1 (decrease of HCV proteins)
# Set-up: species or system hepatitis C virus
# Settings: Hepatitis C virus, 72 h, Rep5.1 cells, 72 hours with drug
# Procedure, shortened: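 HCV protein loss was quantified by ELISA on methanol/acetone-fixed cells 72 h after drug addition, probing with selected HCV-positive human plasma, and IC50 was defined as 50% reduction relative to untreated wells. The cells were Rep5.1 replicon cells cultured in DMEM-10 with 500 μg/ml G418, plated at 5000 per well and dosed with serial dilutions after 4 h attachment.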
# [1] = concentration at which 50% of HCV proteins was decreased, Table 2, read-out: IC50
# [2] = decrease of HCV proteins measured by HCV antibody, Table 1, read-out: Level (IC50 values classified)
smiles,measurement,setting,value
"CC1=C(C(=O)OCC2CCCCC2)C(CF)NC(=S)N1 (stereo not shown) [51′, 4-fluoromethyl-6-methyl-2-thioxo-1,2,3,4-tetrahydro-pyrimidine-5-carboxylic acid cyclohexylmethyl ester]",IC50,[1],5.4 µM
same,IC50,[2],1 to 10 µM
"CC1=C(C(=O)OCc2cc(C)on2)CNC(=S)N1 [47′, 6-methyl-2-thioxo-1,2,3,4-tetrahydro-pyrimidine-5-carboxylic acid 5-methyl-isoxazol-3-ylmethyl ester]",IC50,[1],100 µM
same,IC50,[2],> 20 µM
"CC1=C(C(=O)OCc2c(C)nn(-c3ccccc3)c2C)CNC(=S)N1 [Compound 181, 6-methyl-2-thioxo-1,2,3,4-tetrahydro-pyrimidine-5-carboxylic acid 3,5-dimethyl-1-phenyl-1H-pyrazol-4-ylmethyl ester]",IC50,[1],> 100 µM
same,IC50,[2],> 20 µM
"CC(=O)OCC1NC(=S)NC(C)=C1C(=O)OCCCc1cccs1 (stereo not shown) [23″, 4-acetoxymethyl-6-methyl-2-thioxo-1,2,3,4-tetrahydro-pyrimidine-5-carboxylic acid 3-thiophen-2-yl-propyl ester]",IC50,[1],9 µM
same,IC50,[2],1 to 10 µM
"CC1=C(C(=O)OCC=Cc2ccsc2)C(CF)NC(=S)N1 (stereo not shown) [Compound 269, 4-fluoromethyl-6-methyl-2-thioxo-1,2,3,4-tetrahydro-pyrimidine-5-carboxylic acid 3-thiophen-3-yl-allyl ester]",IC50,[1],5 µM
same,IC50,[2],1 to 10 µM
"CC1=C(C(=O)OCCCc2ccsc2)C(C(C)O)NC(=S)N1 (stereo not shown) [15″, 4-(1-hydroxy-ethyl)-6-methyl-2-thioxo-1,2,3,4-tetrahydro-pyrimidine-5-carboxylic acid 3-thiophen-3-yl-propyl ester]",IC50,[1],55 µM
same,IC50,[2],> 20 µM
"CC1=C(C(=O)OCCc2ccc(F)cc2)C(CO)NC(=S)N1 (stereo not shown) [5″, 4-hydroxymethyl-6-methyl-2-thioxo-1,2,3,4-tetrahydro-pyrimidine-5-carboxylic acid 2-(4-fluoro-phenyl)-ethyl ester]",IC50,[1],6 µM
same,IC50,[2],1 to 10 µM
"CCN(CC)c1ccc(CCOC(=O)C2=C(C)NC(=S)NC2CO)cc1[N+](=O)[O-] (stereo not shown) [91″, 4-Hydroxymethyl-6-methyl-2-thioxo-1,2,3,4-tetrahydro-pyrimidine-5-carboxylic acid 2-(4-diethylamino-3-nitro-phenyl)-ethyl ester]",IC50,[1],0.7 µM
same,IC50,[2],< 1 µM
"CC1=C(C(=O)OCCc2ccc(C)cc2)CNC(=S)N1 [Compound 173, 6-methyl-2-thioxo-1,2,3,4-tetrahydro-pyrimidine-5-carboxylic acid 2-p-tolyl-ethyl ester]",IC50,[1],< 0.4 µM
"CC1=C(C(=O)OCc2cccc3ccccc23)CNC(=S)N1 [Compound 10, 6-methyl-2-thioxo-1,2,3,4-tetrahydro-pyrimidine-5-carboxylic acid naphthalen-1-ylmethyl ester]",IC50,[1],1 µM
same,IC50,[2],< 1 µM
"CC1=C(C(=O)OCCc2ccc(F)cc2)C(CF)NC(=S)N1 (stereo not shown) [32′, 4-fluoromethyl-6-methyl-2-thioxo-1,2,3,4-tetrahydro-pyrimidine-5-carboxylic acid 2-(4-fluoro-phenyl)-ethyl ester]",IC50,[1],0.9 µM
same,IC50,[2],< 1 µM
"CC1=C(C(=O)OCCc2ccc(N3CCCCC3)c([N+](=O)[O-])c2)C(CO)NC(=S)N1 (stereo not shown) [100″, 4-Hydroxymethyl-6-methyl-2-thioxo-1,2,3,4-tetrahydro-pyrimidine-5-carboxylic acid 2-(3-nitro-4-piperidin-1-yl-phenyl)-ethyl ester]",IC50,[1],0.9 µM
same,IC50,[2],< 1 µM
"CC1=C(C(=O)OCCCc2ccsc2)CNC(=S)N1 [Compound 243, 6-methyl-2-thioxo-1,2,3,4-tetrahydro-pyrimidine-5-carboxylic acid 3-thiophen-3-yl-propyl ester]",IC50,[1],< 0.4 µM
same,IC50,[2],< 1 µM
"CC1=C(C(=O)OCCCc2ccc(F)cc2)C(CF)NC(=S)N1 (stereo not shown) [56′, 4-fluoromethyl-6-methyl-2-thioxo-1,2,3,4-tetrahydro-pyrimidine-5-carboxylic acid 3-(4-fluorophenyl)-propyl ester]",IC50,[1],2.4 µM
same,IC50,[2],1 to 10 µM
"CC1=C(C(=O)OCCc2cccc(C)c2)C(CO)NC(=S)N1 (stereo not shown) [64″, 4-hydroxymethyl-6-methyl-2-thioxo-1,2,3,4-tetrahydro-pyrimidine-5-carboxylic acid 2-m-tolyl-ethyl ester]",IC50,[1],5.5 µM
same,IC50,[2],1 to 10 µM
"CC1=C(C(=O)OCCc2ccc(F)cc2Cl)C(CO)NC(=S)N1 (stereo not shown) [58″, 4-hydroxymethyl-6-methyl-2-thioxo-1,2,3,4-tetrahydro-pyrimidine-5-carboxylic acid 2-(2-chloro-4-fluoro-phenyl)-ethyl ester]",IC50,[1],1.8 µM
same,IC50,[2],1 to 10 µM
"CC1=C(C(=O)OCCc2cc(C)cc(C)c2)CNC(=S)N1 [Compound 175, 6-methyl-2-thioxo-1,2,3,4-tetrahydro-pyrimidine-5-carboxylic acid 2-(3,5-dimethylphenyl)-ethyl ester]",IC50,[1],< 0.4 µM
same,IC50,[2],< 1 µM
"CC1=C(C(=O)OCCc2cc3c(C)nn(C)c3s2)CNC(=S)N1 [Compound 267, 6-methyl-2-thioxo-1,2,3,4-tetrahydro-pyrimidine-5-carboxylic acid 2-(1,3-dimethyl-1H-thieno[2,3-c]pyrazol-5-yl)-ethyl ester]",IC50,[1],24 µM
same,IC50,[2],> 20 µM
"CC1=C(C(=O)OCc2cccc(Cl)c2)CNC(=S)N1 [Compound 91, 6-methyl-2-thioxo-1,2,3,4-tetrahydro-pyrimidine-5-carboxylic acid 3-chloro-benzyl ester]",IC50,[1],< 0.4 µM
same,IC50,[2],< 1 µM
"COc1ccc(COC(=O)C2=C(C)NC(=S)NC2)c(F)c1 [Compound 177, 6-methyl-2-thioxo-1,2,3,4-tetrahydro-pyrimidine-5-carboxylic acid 2-fluoro-4-methoxy-benzyl ester]",IC50,[1],2.5 µM
same,IC50,[2],1 to 10 µM
"CCOC(=O)COC(=O)OCC1NC(=S)NC(C)=C1C(=O)OCCc1cccc([N+](=O)[O-])c1 (stereo not shown) [83″, 4-ethoxycarbonylmethoxycarbonyloxymethyl-6-methyl-2-thioxo-1,2,3,4-tetrahydro-pyrimidine-5-carboxylic acid 2-(3-nitro-phenyl)-ethyl ester]",IC50,[1],6.1 µM
same,IC50,[2],1 to 10 µM
"COc1ccc(C2(COC(=O)C3=C(C)NC(=S)NC3CF)CC2)cc1 (stereo not shown) [66′, 4-fluoromethyl-6-methyl-2-thioxo-1,2,3,4-tetrahydro-pyrimidine-5-carboxylic acid 1-(4-methoxy-phenyl)-cyclopropylmethyl ester]",IC50,[1],8 µM
same,IC50,[2],1 to 10 µM
"CCOC(=O)C1NC(=S)NC(C)=C1C(=O)OCCc1ccsc1 (stereo not shown) [6′, 6-methyl-2-thioxo-1,2,3,4-tetrahydro-pyrimidine-4,5-dicarboxylic acid 4-ethyl ester 5-(2-thiophen-3-yl-ethyl) ester]",IC50,[1],> 100 µM
same,IC50,[2],> 20 µM
"CC1=C(C(=O)OCCCc2ccncc2)CNC(=S)N1 [Compound 13, 6-methyl-2-thioxo-1,2,3,4-tetrahydro-pyrimidine-5-carboxylic acid 3-pyridin-4-yl-propyl ester]",IC50,[1],> 100 µM
same,IC50,[2],> 20 µM
"CC1=C(C(=O)OC(C)Cc2ccsc2Br)C(CF)NC(=S)N1 (stereo not shown) [27′, 4-fluoromethyl-6-methyl-2-thioxo-1,2,3,4-tetrahydro-pyrimidine-5-carboxylic acid 2-(2-bromo-thiophen-3-yl)-1-methyl-ethyl ester]",IC50,[1],< 0.4 µM
same,IC50,[2],< 1 µM

# Reference: US20060116390A1, “Hepatitis c virus inhibitors” (priority 2003, published 2006)
